According to PMC7451048 (Drug metabolism letters, 2019):

Assays:
[1] = biological target: T1, OATP1B1 (Homo sapiens, UniProt Q9Y6L6); conditions: 3 min; for Inhibition of cellular uptake by RIF, OATP1B1-overexpressing cells: 20 μM RIF, BUP 5 μM, OHB 10 μM, TB 20 μM, EB 30 μM; for Apparent Vmax: net cellular uptake, CHO/OATP1B1-overexpressing cells, mean ± SD
T1 sequence (Q9Y6L6 1-691): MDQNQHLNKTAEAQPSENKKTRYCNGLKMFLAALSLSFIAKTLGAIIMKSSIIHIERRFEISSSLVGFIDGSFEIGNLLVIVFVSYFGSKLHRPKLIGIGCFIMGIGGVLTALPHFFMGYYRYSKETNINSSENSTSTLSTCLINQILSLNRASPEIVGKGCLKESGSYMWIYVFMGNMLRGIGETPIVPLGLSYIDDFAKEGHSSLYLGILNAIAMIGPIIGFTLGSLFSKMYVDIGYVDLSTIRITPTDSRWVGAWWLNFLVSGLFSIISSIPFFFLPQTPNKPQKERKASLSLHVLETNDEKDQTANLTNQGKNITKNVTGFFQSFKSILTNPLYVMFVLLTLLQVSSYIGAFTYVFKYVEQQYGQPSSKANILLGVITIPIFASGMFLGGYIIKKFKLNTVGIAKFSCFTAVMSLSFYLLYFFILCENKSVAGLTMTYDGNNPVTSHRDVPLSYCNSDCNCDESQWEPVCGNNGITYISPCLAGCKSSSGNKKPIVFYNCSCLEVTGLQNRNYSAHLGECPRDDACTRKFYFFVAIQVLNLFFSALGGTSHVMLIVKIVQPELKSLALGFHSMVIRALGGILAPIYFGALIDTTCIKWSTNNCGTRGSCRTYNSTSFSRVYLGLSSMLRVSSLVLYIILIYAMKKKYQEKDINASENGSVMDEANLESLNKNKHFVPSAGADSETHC

[2] = biological target: T2, BCRP (Homo sapiens, UniProt Q9UNQ0); assay: Plasma membrane vesicle transport assay, BCRP vesicles; type: in vitro ADME; conditions: for Difference in BCRP vesicle uptake between ATP and AMP: 10 μM, 1 min (Fig. 9)
T2 sequence (Q9UNQ0 1-655): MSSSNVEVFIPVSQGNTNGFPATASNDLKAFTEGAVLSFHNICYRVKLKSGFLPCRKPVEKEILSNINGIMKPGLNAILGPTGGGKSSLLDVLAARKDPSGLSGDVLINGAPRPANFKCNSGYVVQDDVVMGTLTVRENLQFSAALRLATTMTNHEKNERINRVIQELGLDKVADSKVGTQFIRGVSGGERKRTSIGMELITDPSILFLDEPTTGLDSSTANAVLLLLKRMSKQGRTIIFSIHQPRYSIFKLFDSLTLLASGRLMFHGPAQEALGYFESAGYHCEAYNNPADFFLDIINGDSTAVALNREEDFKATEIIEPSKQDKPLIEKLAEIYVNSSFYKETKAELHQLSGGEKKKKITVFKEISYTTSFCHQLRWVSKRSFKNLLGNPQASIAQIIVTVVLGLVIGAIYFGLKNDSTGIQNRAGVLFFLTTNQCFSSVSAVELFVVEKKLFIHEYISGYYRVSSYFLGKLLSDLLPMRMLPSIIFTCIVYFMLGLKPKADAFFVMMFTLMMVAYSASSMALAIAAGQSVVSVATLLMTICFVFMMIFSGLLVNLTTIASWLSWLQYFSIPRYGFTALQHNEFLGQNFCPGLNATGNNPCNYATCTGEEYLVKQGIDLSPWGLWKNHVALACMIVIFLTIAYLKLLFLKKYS

[3] = biological target: T3, OATP1B3 (Homo sapiens, UniProt Q9NPD5); conditions: 3 min; for Inhibition of cellular uptake by RIF, OATP1B3-overexpressing cells: 20 μM RIF, BUP 5 μM, OHB 30 μM, TB 10 μM, EB 5 μM; for Apparent Vmax / Km: net cellular uptake, CHO/OATP1B3-overexpressing cells, mean ± SD; for Km: read-out: Apparent Km
T3 sequence (Q9NPD5 1-702): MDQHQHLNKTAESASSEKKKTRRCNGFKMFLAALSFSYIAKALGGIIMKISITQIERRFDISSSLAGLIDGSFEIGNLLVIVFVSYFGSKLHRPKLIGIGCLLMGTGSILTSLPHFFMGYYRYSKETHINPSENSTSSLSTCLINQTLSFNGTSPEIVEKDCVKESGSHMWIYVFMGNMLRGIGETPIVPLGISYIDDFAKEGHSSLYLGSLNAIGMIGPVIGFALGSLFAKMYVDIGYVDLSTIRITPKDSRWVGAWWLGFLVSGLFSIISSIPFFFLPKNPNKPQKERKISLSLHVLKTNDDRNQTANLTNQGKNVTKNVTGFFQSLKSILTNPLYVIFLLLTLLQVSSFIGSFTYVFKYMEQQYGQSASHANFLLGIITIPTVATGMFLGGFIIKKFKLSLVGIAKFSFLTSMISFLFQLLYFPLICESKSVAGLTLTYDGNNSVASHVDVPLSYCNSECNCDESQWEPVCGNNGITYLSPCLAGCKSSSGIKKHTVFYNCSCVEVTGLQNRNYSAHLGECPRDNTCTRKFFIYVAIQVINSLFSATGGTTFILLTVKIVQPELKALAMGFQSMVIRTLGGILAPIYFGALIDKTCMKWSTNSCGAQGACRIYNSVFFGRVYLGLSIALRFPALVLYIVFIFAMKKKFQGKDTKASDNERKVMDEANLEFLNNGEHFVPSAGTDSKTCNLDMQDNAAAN

[4] = biological target: T4, OATP2B1 (Homo sapiens, UniProt O94956)
T4 sequence (O94956 1-709): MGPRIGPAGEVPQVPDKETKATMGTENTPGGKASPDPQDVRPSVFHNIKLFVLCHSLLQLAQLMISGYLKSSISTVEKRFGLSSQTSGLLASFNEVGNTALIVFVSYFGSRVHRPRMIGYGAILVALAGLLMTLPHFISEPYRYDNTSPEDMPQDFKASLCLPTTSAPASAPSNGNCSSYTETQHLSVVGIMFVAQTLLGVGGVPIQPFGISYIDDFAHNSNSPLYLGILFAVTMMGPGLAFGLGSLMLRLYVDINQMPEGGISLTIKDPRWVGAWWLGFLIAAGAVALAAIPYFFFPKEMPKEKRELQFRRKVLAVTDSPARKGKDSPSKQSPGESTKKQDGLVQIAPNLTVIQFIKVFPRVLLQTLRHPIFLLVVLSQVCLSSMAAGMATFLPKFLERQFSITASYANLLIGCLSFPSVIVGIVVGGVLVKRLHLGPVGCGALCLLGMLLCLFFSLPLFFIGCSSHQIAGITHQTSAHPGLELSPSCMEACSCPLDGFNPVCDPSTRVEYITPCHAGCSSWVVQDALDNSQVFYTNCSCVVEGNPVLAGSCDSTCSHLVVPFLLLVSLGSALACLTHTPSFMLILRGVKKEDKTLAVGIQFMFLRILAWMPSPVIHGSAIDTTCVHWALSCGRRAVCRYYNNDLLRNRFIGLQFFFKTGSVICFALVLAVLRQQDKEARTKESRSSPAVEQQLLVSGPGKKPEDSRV

With `C[C@H](NC(C)(C)C)[C@@H](O)c1cccc(Cl)c1` [TB, Threohydrobupropion] the “Inhibition of cellular uptake by RIF, OATP1B1-overexpressing cells” value (“Inhibition … OATP1B1-overexpressing cells” for short) [1] was “no statistically significant differences”, the “Apparent Vmax” value [1] was 1351±55 pmol/mg protein/min and the “Substrate of BCRP (conclusion)” value [2] was “not substrates”. The “Difference in BCRP vesicle uptake between ATP and AMP” value (“Difference” below) [2] was “No significant differences”, the “Inhibition of cellular uptake by RIF, OATP1B3-overexpressing cells” value (“Inhibition … OATP1B3-overexpressing cells” below) [3] was “no statistically significant differences” and the “Apparent Vmax” value [3] was 2536±97 pmol/mg protein/min. The Km [3] was 21 ± 3 µM and the “Substrate of OATP2B1 (conclusion)” value [4] was “not substrates”.
`C[C@H]1NC(C)(C)CO[C@]1(O)c1cccc(Cl)c1` [OHB, Hydroxybupropion] was tested, and the “Inhibition … OATP1B1-overexpressing cells” value [1] was “no statistically significant differences”, the “Apparent Vmax” value [1] was 1423 ± 49 pmol/mg protein/min and the “Substrate of BCRP (conclusion)” value [2] was “not substrates”. The “Difference” value [2] was “No significant differences”, the “Inhibition … OATP1B3-overexpressing cells” value [3] was “no statistically significant differences” and the “Apparent Vmax” value [3] was 1258±86 pmol/mg protein/min. The Km [3] was 76 ± 14 µM and the “Substrate of OATP2B1 (conclusion)” value [4] was “not substrates”.
In the case of `CC(NC(C)(C)C)C(O)c1cccc(Cl)c1` (stereo not drawn) [EB, Erythrohydrobupropion], the “Inhibition … OATP1B1-overexpressing cells” value [1] is reported as “no statistically significant differences”, the “Apparent Vmax” value [1] is reported as 1806±133 pmol/mg protein/min and the “Substrate of BCRP (conclusion)” value [2] is reported as “not substrates”. For the same compound, the “Difference” value [2] was “No significant differences”, the “Inhibition … OATP1B3-overexpressing cells” value [3] was “no statistically significant differences” and the “Apparent Vmax” value [3] was 1026±37 pmol/mg protein/min. The Km [3] was 14 ± 2 µM and the “Substrate of OATP2B1 (conclusion)” value [4] was “not substrates”.
